Holding throughout (format): cell-based
The test system of assay [1] is WT and HIV-1 variants containing amino acid substitutions in RT. The conditions noted are these: cytopathic cell killing assay, NNRTI-resistant HIV isolates. On the technique in general: Damage to the host cells serves as the signal in cytopathic effect assays.
The test system of another assay is HIV-1 WT virus (NL4-3). The assay is described as follows: microbe, parasite or virus in culture. Particulars: Human immunodeficiency virus 1, NL43, CEM-SS. The method in brief:
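CEM-SS cells (5×10^3/well) infected with HIV-1 NL4-3 at MOI giving complete killing by day 6 (e.g., 0.01-0.05), with half-log compound dilutions in triplicate. After six days at 37° C., viability measured by XTT reduction at 450 nm; CIC50 is 50% inhibitory concentration of cytopathic killing.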

The next assay has as its system HIV-1 isolate V108I. Kind of assay: Cytopathic cell killing assay, MT-4 cells, isolate V108I. In outline: (§1)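 Cells (e.g., CEM-SS) were seeded at 5×10^3 cells/well and infected with pre-titered HIV isolates at an MOI giving complete killing by day 6 (e.g., 0.01-0.05), with half-log compound dilutions in triplicate. Viability was read after six days at 37° C by XTT reduction at 450 nm; […].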

Assay [2] concerns HIV-1 isolate 4xAZT (AZT drug-resistant variant). The assay is described as follows: Cytopathic cell killing assay, MT-4 cells, isolate 4xAZT. Particulars: Human immunodeficiency virus 1, MT4, read-out: EC50, isolate 4XAZT. An excerpt: (§2) The various HIV isolates tested in the Figures are those corresponding to wild-type virus (NL4-3) and the other strains listed by their RT mutations. The three 4×AZT isolates included in the Figures represent AZT drug-resistant variants. For example, the 4×AZT/L100I isolate has five mutations: four mutations confer increased resistance to AZT, and the other mutation is located within the NNRTI binding pocket. TZB and nevir. (nevirapine) are two well-known NNRTIs, included in this experiment for comparison purposes.
(§3) In this Example, the antiviral and cellular toxicity of NNRTIs was investigated, using the cytopathic cell killing assay described by Yang (Yang et al., “Characteristics of a Group of Non-nucleoside Reverse Transcriptase Inhibitors with Structural Diversity and Potent Anti-Human Immunodeficiency Virus Activity,” Leukemia 9:S75-S85 [1995]). Briefly, in this method cells (e.g., the CEM-SS cell line, available from the NIAID AIDS Research and Reference Program [ARRRP]) were seeded at a density of 5×10^3 cells/well, into the wells of a 96-well microtiter plate. The cells were then infected with HIV virus (either mutant or WT), at a multiplicity of infection (MOI) previously determined to provide complete cell killing by 6 days of culture post-infection (e.g., MOI of 0.01-0.05). Each of the HIV isolates was pre-titered to induce equivalent levels of infection based on cell killing or virus production, prior to their use in these assays. A range of test compound concentrations was added to the wells in triplicate (e.g., serial half-log dilutions) to evaluate inhibition of HIV infection. […]
(§4) After six days of incubation at 37° C., cell viability was determined spectrophotometrically at 450 nm for each well, using the metabolic reduction of XTT to a soluble colored formazan. (See, Gartner and Popovic, “Virus Isolation and Production, in Aldovini and Walker (eds.), Techniques in HIV Research, Stockton Press, NY, pp. […] [1991]; and Nara and Fischinger, “Quantitative Infectivity Assay for HIV-1 and HIV-2, ” Nature 332:469-470 [1988]). […]

A further assay deals with HIV-1 isolate Y188H. Kind of assay: Cytopathic cell killing assay, isolate Y188H. Particulars: Human immunodeficiency virus 1, read-out: EC50, isolate Y188H.
Source text: as §2
(§5) In this Example, the antiviral and cellular toxicity of NNRTIs was investigated, using the cytopathic cell killing assay described by Yang (Yang et al., “Characteristics of a Group of Non-nucleoside Reverse Transcriptase Inhibitors with Structural Diversity and Potent Anti-Human Immunodeficiency Virus Activity,” Leukemia 9:S75-S85 [1995]). Briefly, in this method cells (e.g., the CEM-SS cell line, available from the NIAID AIDS Research and Reference Program [ARRRP]) were seeded at a density of 5×10^3 cells/well, into the wells of a 96-well microtiter plate. The cells were then infected with HIV virus (either mutant or WT), at a multiplicity of infection (MOI) previously determined to provide complete cell killing by 6 days of culture post-infection (e.g., MOI of 0.01-0.05). Each of the HIV isolates was pre-titered to induce equivalent levels of infection based on cell killing or virus production, prior to their use in these assays. A range of test compound concentrations was added to the wells in triplicate (e.g., serial half-log dilutions) to evaluate inhibition of HIV infection. Controls for each assay included drug controls (drug colorimetric control wells), drug cytotoxicity control wells (cells with drug), virus control wells (cells with virus), and cell viability controls (cells only). Positive control drugs (e.g. AZT and ddC) were also run in parallel.
(§6) After six days of incubation at 37° C., cell viability was determined spectrophotometrically at 450 nm for each well, using the metabolic reduction of XTT to a soluble colored formazan. (See, Gartner and Popovic, “Virus Isolation and Production, in Aldovini and Walker (eds.), Techniques in HIV Research, Stockton Press, NY, pp. […] [1991]; and Nara and Fischinger, “Quantitative Infectivity Assay for HIV-1 and HIV-2, ” Nature 332:469-470 [1988]).
(§7) The in vitro therapeutic index (TI50) was defined as the fold-difference between the EC50 and IC50. The results for the various compounds are included in FIGS. 8 and 19.

The next assay has as its system HIV-1 isolate L100I. The assay is described as follows: Cytopathic cell killing assay, MT-4 cells, isolate L100I. In outline: as §1
A further assay deals with HIV-1 isolate L74V. Kind of assay: Cytopathic cell killing assay, MT-4 cells, isolate L74V.
Source text: as §2, §5, §6, §7

Another assay deals with HIV-1 isolate V179D. Kind of assay: Cytopathic cell killing assay, MT-4 cells, isolate V179D.
Source text: as §2, §5, §6, §7

The test system of the next assay is HIV-1 isolate M184I. The assay is described as follows: Cytopathic cell killing assay, isolate M184I. The conditions noted are these: Human immunodeficiency virus 1, read-out: EC50, isolate M184I.
Source text: as §2, §3, §4

The next assay deals with HIV-1 isolate V106A. Kind of assay: Cytopathic cell killing assay, MT-4 cells, isolate V106A.
Source text: as §2, §3, §4

Another assay concerns HIV-1 NL4-3 (WT). Kind of assay: Cytopathic cell killing assay, MT-4 cells, isolate NL4-3 (WT). The method in brief: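 Infect seeded cells with HIV-1 at a pre-determined MOI, add compound over a half-log concentration range, incubate six days at 37° C, then measure XTT formazan at 450 nm. Parallel wells of cells with drug alone assessed cytotoxicity.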

Results on two compounds are retold here after patent US6894068B2, “Substituted benzimidazoles as non-nucleoside inhibitors of reverse transcriptase” (The United States of America as represented by the …, priority 1997, dated 2005).

Like-named read-outs stand apart in the source and are kept apart here.

As for `CCc1cccc2c1nc(-c1c(F)cccc1F)n2Cc1c(F)cccc1F` [Compound 4011, 1-(2,6-difluorobenzyl)-2-(2,6-difluorophenyl)-4-ethylbenzimidazole], the “cross-resistance profile, result in words” value in assay [1] was “inhibit HIV-1 better than TZB”. Moreover, the EC50 – broadly, the concentration at which the effect is half-maximal – in the assay on HIV-1 WT virus (NL4-3) was 820 nM; in the assay on HIV-1 isolate V108I (Human immunodeficiency virus 1, MT4, read-out: EC50, isolate V108I), > 50000 nM; with HIV-1 isolate V108I (Human immunodeficiency virus 1, MT4, read-out: EC50, isolate V1081), 3000 nM; in assay [2], 3000 nM; in the assay with HIV-1 isolate Y188H it was 13200 nM; with HIV-1 isolate L100I (Human immunodeficiency virus 1, MT4, read-out: EC50, isolate L100I) it was 2480 nM. Further, the half-maximal effective concentration (EC50) in the assay on HIV-1 isolate L100I (Human immunodeficiency virus 1, MT4, read-out: EC50, isolate L1001) was 600 nM; in the assay with HIV-1 isolate L74V (Human immunodeficiency virus 1, MT4, read-out: EC50, isolate L74V), 1500 nM; with HIV-1 isolate V179D (Human immunodeficiency virus 1, MT4, read-out: EC50, isolate V179D), 1800 nM; with HIV-1 isolate M184I, 960 nM; in the assay with HIV-1 isolate V106A (Human immunodeficiency virus 1, MT4, read-out: EC50, isolate V106A), > 20000 nM; in the assay with HIV-1 NL4-3 (WT) (Human immunodeficiency virus 1, NL43, MT4, read-out: EC50, isolate NL4-3), 1.1 µM. Also, the EC50 in the assay with HIV-1 NL4-3 (WT) (Human immunodeficiency virus 1, NL43, MT4, read-out: EC50, isolate NL4-3 (WT)) was 0.9 µM.

With `Nc1cccc2c1nc(-c1c(F)cccc1F)n2Cc1c(F)cccc1F` [Compound 3300, 4-amino-1-(2,6-difluorobenzyl)-2-(2,6-difluorophenyl)benzimidazole], in assay [1], the “cross-resistance profile, result in words” value was “inhibit HIV-1 better than TZB”. For the same compound, the EC50 was 460 nM in the assay on HIV-1 WT virus (NL4-3) (Table 7, drug concentration required to reduce cell killing or virus production by 50%, WT, read-out: EC50); > 20000 nM in the assay on HIV-1 isolate V108I (Human immunodeficiency virus 1, MT4, read-out: EC50, isolate V1081, Table 8, MT-4 cells); 200 nM in assay [2]; > 50000 nM in the assay with HIV-1 isolate Y188H; 1300 nM in the assay on HIV-1 isolate L100I (Human immunodeficiency virus 1, MT4, read-out: EC50, isolate L1001, Table 8, MT-4 cells); 300 nM in the assay with HIV-1 isolate L74V (Human immunodeficiency virus 1, MT4, read-out: EC50, isolate L74V, Table 8, MT-4 cells). The EC50 in the assay on HIV-1 isolate V179D (Human immunodeficiency virus 1, MT4, read-out: EC50, isolate V179D, Table 8, MT-4 cells) is 300 nM; with HIV-1 isolate M184I, 650 nM; in the assay with HIV-1 isolate V106A (Human immunodeficiency virus 1, MT4, read-out: EC50, isolate V106A, Table 8, MT-4 cells), > 20000 nM; in the assay on HIV-1 NL4-3 (WT) (Human immunodeficiency virus 1, NL43, MT4, Table 8, MT-4 cells, read-out: EC50, isolate NL4-3), 0.5 µM; with HIV-1 NL4-3 (WT) (Human immunodeficiency virus 1, NL43, MT4, Table 10, values in μM, read-out: EC50, isolate NL4-3 (WT)), 0.68 µM; in the assay with HIV-1 NL4-3 (WT) (Table 10, values in μM, listed as NH2, read-out: EC50, isolate NL4-3 (WT)) it was 0.4 µM.
